The text below walks through data of patent publication US20260334439A1, “BCAT2 INHIBITORS” (Agios Pharmaceuticals, Inc., priority 2023, published 2026).

Assay [1] addresses T1, BCAT2 (Homo sapiens, UniProt O15382).
T1 sequence (O15382 28-392): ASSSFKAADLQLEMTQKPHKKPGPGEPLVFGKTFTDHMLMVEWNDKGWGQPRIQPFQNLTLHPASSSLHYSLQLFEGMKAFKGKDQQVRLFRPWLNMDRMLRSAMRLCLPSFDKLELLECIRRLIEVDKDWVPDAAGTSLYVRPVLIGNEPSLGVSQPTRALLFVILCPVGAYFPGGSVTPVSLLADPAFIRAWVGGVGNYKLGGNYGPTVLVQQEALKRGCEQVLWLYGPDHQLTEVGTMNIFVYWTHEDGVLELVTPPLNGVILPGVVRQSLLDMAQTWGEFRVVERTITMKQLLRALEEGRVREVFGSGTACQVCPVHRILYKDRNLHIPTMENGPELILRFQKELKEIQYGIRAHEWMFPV
Description: BCAT2 in vitro enzyme inhibition assay (hBCAT2, glutamate dehydrogenase/diaphorase/resazurin coupled fluorescence read). It is filed as biochemical. The conditions noted are these: hBCAT2, 1 h preincubation at 25° C., one hour reaction; average where tested multiple times. In outline:
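hBCAT2 (0.33 μg/mL in mix) preincubated 1 h at 25 °C with compound (top 100 μM, 3-fold, 10 points) in Tris pH 8.0/NaCl/BSA; substrate mix added (L-leucine, α-ketoglutarate, GDH, NAD, diaphorase, resazurin), quenched with SDS after 1 h, fluorescence Ex 540/Em 590; duplicates, repeat tests averaged.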

Assay [2] deals with T1, BCAT2. Description: BCAT2 cell inhibition using engineered A549 cells (MUT KO, BCAT1 KO; 13C6-KMV formation by LC-MS/MS). Also noted: expressed endogenous BCAT2; endogenous in cells; host or cells: A549 cells, MUT knockout and BCAT1 knockout. Format: cell-based. In outline: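 Medium 13C6-KMV formation is read by LC-MS/MS after PFBHA derivatization with d8-KMV internal standard. Cells are CRISPR MUT/BCAT1 double-knockout A549 expressing endogenous BCAT2, given compound 15 min before labelled isoleucine (800 uM, added 1:1) for 24 h. CTG viability run in parallel; replicates averaged.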

Each structure is given as a SMILES string.

With `O=C(N[C@H]1CCC[C@@H](n2c(-c3ccccc3F)nc3cnc(-c4nc[nH]n4)cc32)C1)c1c(F)cccc1F` [Example 74, 2,6-difluoro-N-((1S,3R)-3-(2-(2-fluorophenyl)-6-(1H-1,2,4-triazol-3-yl)-1H-imidazo[4,5-c]pyridin-1-yl)cyclohexyl)benzamide], the IC50 – broadly, the concentration at which inhibition is half-maximal – in assay [1] is < 100 nM; in assay [2] it was 100 to 500 nM.

For `O=C1c2cc(F)ccc2CN1[C@H]1CCC[C@@H](n2c(-c3ccccc3OC(F)F)nc3cnc(-c4nc[nH]n4)cc32)[C@@H]1O` [compound 188], the IC50 in assay [1] is < 100 nM; in assay [2], 100 to 500 nM.

As to `O=C(N[C@H]1CCC[C@@H](n2c(-c3ccccc3F)nc3cnc(-c4nc[nH]n4)cc32)C1)c1ncccc1F` [Example 11, 3-fluoro-N-((1S,3R)-3-(2-(2-fluorophenyl)-6-(1H-1,2,4-triazol-3-yl)-1H-imidazo[4,5-c]pyridin-1-yl)cyclohexyl)picolinamide], the values for the IC50 in assay [1] and in assay [2] were < 100 nM and 500 to 1000 nM, respectively.

With `O=C(N[C@H]1CCC[C@@H](n2c(-c3c(O)cccc3F)nc3ccc(-c4nc[nH]n4)cc32)C1)c1cc(Cl)ccn1` [Example 227, 4-chloro-N-((1S,3R)-3-(2-(2-fluoro-6-hydroxyphenyl)-6-(1H-1,2,4-triazol-3-yl)-1H-benzo[d]imidazol-1-l)cyclohexyl)picolin-amide], the results for the IC50 in assay [1] and in assay [2] were < 100 nM and 100 to 500 nM, respectively.

`O=C1c2ccccc2CN1[C@H]1CCC[C@@H](n2c(-c3ccccc3F)nc3cnc(-c4nc[nH]n4)cc32)C1` [Example 174, 2-((1S,3R)-3-(2-(2-fluorophenyl)-6-(1H-1,2,4-triazol-3-yl)-1H-imidazo[4,5-c]pyridin-1-yl)cyclohexyl)isoindolin-1-one]: the IC50 in assay [1] and in assay [2] was < 100 nM each time.

Regarding `O=C1c2cc(F)ccc2OCN1[C@H]1CCC[C@@H](n2c(-c3ccccc3OC(F)F)nc3cnc(-c4nc[nH]n4)cc32)C1` [compound 211], the IC50 in assay [1] and in assay [2] was < 100 nM in each case.

On to `O=C(N[C@H]1CCC[C@@H](n2c(-c3ccccc3F)nc3cnc(-c4nc[nH]n4)cc32)C1)c1cc(Cl)ccc1F` [Example 56, 5-chloro-2-fluoro-N-((1S,3R)-3-(2-(2-fluorophenyl)-6-(1H-1,2,4-triazol-3-yl)-1H-imidazo[4,5-c]pyridin-1-yl)cyclohexyl)benzamide], for which the concentration for half-maximal inhibition (IC50) in assay [1] and in assay [2] was < 100 nM each time.

With `O=C(N[C@H]1CCC[C@@H](n2c(-c3ccccc3F)nc3cnc(-c4nc[nH]n4)cc32)C1)c1cc(Cl)ccc1OC(CO)CO` [Example 90, 5-chloro-2-((1,3-dihydroxypropan-2-yl)oxy)-N-((1S,3R)-3-(2-(2-fluorophenyl)-6-(1H-1,2,4-triazol-3-yl)-1H-imidazo[4,5-c]pyridin-1-yl)cyclohexyl)benzamide], the results for the IC50 in assay [1] and in assay [2] were < 100 nM and 100 to 500 nM, respectively.

Regarding `O=C1c2cc(Cl)ccc2OCN1[C@H]1CCC[C@@H](n2c(-c3ccccc3F)nc3cnc(-c4nc[nH]n4)cc32)C1` [Example 202, 6-chloro-3-((1S,3R)-3-(2-(2-fluorophenyl)-6-(1H-1,2,4-triazol-3-yl)-1H-imidazo[4,5-c]pyridin-1-yl)cyclohexyl)-2,3-dihydro-4H-benzo[e][1,3]oxazin-4-one], the IC50 in assay [1] and in assay [2] was < 100 nM throughout.

Take `O=C(N[C@H]1CCC[C@@H](n2c(-c3ccccc3F)nc3cnc(-c4nc[nH]n4)cc32)C1)c1ccccc1Cl` [Example 3, 2-chloro-N-((1S,3R)-3-(2-(2-fluorophenyl)-6-(1H-1,2,4-triazol-3-yl)-1H-imidazo[4,5-c]pyridin-1-yl)cyclohexyl)benzamide]: the 50% inhibitory concentration (IC50) was < 100 nM in assay [1] and 100 to 500 nM in assay [2].

In the case of `CO[C@H]1C[C@H](NC(=O)c2cc(F)ccn2)C[C@H](n2c(-c3ccccc3F)nc3cnc(-c4nc[nH]n4)cc32)C1` [Example 113, 4-fluoro-N-((1R,3S,5S)-3-(2-(2-fluorophenyl)-6-(1H-1,2,4-triazol-3-yl)-1H-imidazo[4,5-c]pyridin-1-yl)-5-methoxycyclohexyl)picolinamide], the IC50 in assay [1] and in assay [2] was < 100 nM throughout.
